Measurements published in PubChem BioAssay AID248 (DTP/NCI, 2004).
Values joined by “and” are separate entries in the source; they are usually repeats but may differ in a detail not shown here. Equal values may be shown once. Inconclusive results and toxic doses are left out. Rule as the data show it: active = T/C of 150% or more; inactive = T/C below 125%.

Test system: L1210 leukemia ip in BDF1 mice, survival T/C
Experiment: NCI In Vivo Anticancer Drug Screen. Data for tumor model L1210 Leukemia (intraperitoneal) in B6D2F1 (BDF1) mice
Settings: endpoint: mean survival time, higher = longer survival
Summary of the method: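 Read-out is survival time, reported as the treated-group measurement over the vehicle-control measurement.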

[1] = dose: 50.0 mg/kg/injection, schedule: Q01DX001 (ip), vehicle: saline
[2] = dose: 100.0 mg/kg/injection, schedule: Q01DX001 (ip), vehicle: saline
[3] = dose: 200.0 mg/kg/injection, schedule: Q01DX001 (ip), vehicle: saline
[4] = dose: 100.0 mg/kg/injection, schedule: Q04DX003 (ip), vehicle: saline with Tween-80
[5] = dose: 200.0 mg/kg/injection, schedule: Q04DX003 (ip), vehicle: saline with Tween-80
[6] = dose: 100.0 mg/kg/injection, schedule: Q01DX001 (ip), vehicle: carboxymethylcellulose (CMC)
[7] = dose: 200.0 mg/kg/injection, schedule: Q01DX001 (ip), vehicle: carboxymethylcellulose (CMC)
[8] = dose: 100.0 mg/kg/injection, schedule: Q01DX001 (ip), vehicle: Klucel (hydroxypropylcellulose) (HPC)
[9] = dose: 200.0 mg/kg/injection, schedule: Q01DX001 (ip), vehicle: Klucel (hydroxypropylcellulose) (HPC)
[10] = dose: 400.0 mg/kg/injection, schedule: Q01DX001 (ip), vehicle: Klucel (hydroxypropylcellulose) (HPC)
[11] = dose: 100.0 mg/kg/injection, schedule: Q04DX003 (ip), vehicle: Klucel (hydroxypropylcellulose) (HPC)
[12] = dose: 400.0 mg/kg/injection, schedule: Q01DX001 (ip), vehicle: saline

Measured: T/C

O=C(N/N=C\c1ccc(N(CCCl)CCCl)cc1)c1cccnc1
inactive: dose: 12.5 mg/kg/injection, schedule: Q01DX Z (ip), vehicle: carboxymethylcellulose (CMC) 96 % of control | dose: 25.0 mg/kg/injection, schedule: Q01DX Z (ip), vehicle: carboxymethylcellulose (CMC) 93 % of control and 94 % of control | dose: 50.0 mg/kg/injection, schedule: Q01DX Z (ip), vehicle: carboxymethylcellulose (CMC) 94 % of control and 100 % of control | dose: 100.0 mg/kg/injection, schedule: Q01DX Z (ip), vehicle: carboxymethylcellulose (CMC) 97 % of control and 104 % of control | dose: 200.0 mg/kg/injection, schedule: Q01DX Z (ip), vehicle: carboxymethylcellulose (CMC) 107 % of control and 111 % of control

CCCCCCCCOC(=O)c1[nH]cnc1N
inactive: [1] 100 % of control | [2] 96 % of control | [3] 96 % of control

COC1OC(CBr)C(OC(=O)c2ccccc2)C(OC(=O)c2ccccc2)C1OS(=O)(=O)c1ccc(C)cc1 (configuration not stated)
inactive: dose: 50.0 mg/kg/injection, schedule: Q04DX002 (ip), vehicle: Klucel (hydroxypropylcellulose) (HPC) 97 % of control | dose: 100.0 mg/kg/injection, schedule: Q04DX002 (ip), vehicle: Klucel (hydroxypropylcellulose) (HPC) 87 % of control | dose: 200.0 mg/kg/injection, schedule: Q04DX002 (ip), vehicle: Klucel (hydroxypropylcellulose) (HPC) 97 % of control

Nc1ncc(Br)c2ccccc12
inactive: [4] 96 % of control | [5] 103 % of control

Cc1cc2cc(C)c3cccc(C)c3c2c2c(C)cccc12
inactive: dose: 100.0 mg/kg/injection, schedule: Q01DX009 (ip), vehicle: Klucel (hydroxypropylcellulose) (HPC) 102 % of control | dose: 100.0 mg/kg/injection, schedule: Q04DX003 (ip), vehicle: other 95 % of control | dose: 200.0 mg/kg/injection, schedule: Q01DX009 (ip), vehicle: Klucel (hydroxypropylcellulose) (HPC) 106 % of control | dose: 200.0 mg/kg/injection, schedule: Q04DX003 (ip), vehicle: other 97 % of control | dose: 400.0 mg/kg/injection, schedule: Q01DX009 (ip), vehicle: Klucel (hydroxypropylcellulose) (HPC) 96 % of control | dose: 400.0 mg/kg/injection, schedule: Q04DX003 (ip), vehicle: other 90 % of control

N#Cc1ccnc2ccccc12
inactive: [6] 97 % of control | [7] 97 % of control | dose: 400.0 mg/kg/injection, schedule: Q01DX001 (ip), vehicle: carboxymethylcellulose (CMC) 98 % of control

CCCC(=O)Nc1ccc(C(=O)OCC)cc1
inactive: dose: 100.0 mg/kg/injection, schedule: Q04DX002 (ip), vehicle: saline 93 % of control | dose: 200.0 mg/kg/injection, schedule: Q04DX002 (ip), vehicle: saline 100 % of control | dose: 400.0 mg/kg/injection, schedule: Q04DX002 (ip), vehicle: saline 107 % of control

O=C(O)CCCCCN1C(=O)C2=C(CCCC2)C1=O
inactive: dose: 75.0 mg/kg/injection, schedule: Q04DX003 (ip), vehicle: saline 98 % of control | dose: 150.0 mg/kg/injection, schedule: Q04DX003 (ip), vehicle: saline 103 % of control | dose: 300.0 mg/kg/injection, schedule: Q04DX003 (ip), vehicle: saline 93 % of control

CC1(C)CCc2c(O)c(N=O)c3ccccc3c2O1
inactive: dose: 100.0 mg/kg/injection, schedule: Q01DX001 (ip), vehicle: saline with Tween-80 103 % of control | dose: 200.0 mg/kg/injection, schedule: Q01DX001 (ip), vehicle: saline with Tween-80 95 % of control | dose: 400.0 mg/kg/injection, schedule: Q01DX001 (ip), vehicle: saline with Tween-80 95 % of control

CC(=O)Nc1ccc(I)cc1C(=O)O
inactive: dose: 50.0 mg/kg/injection, schedule: Q01DX001 (ip), vehicle: carboxymethylcellulose (CMC) 96 % of control | [6] 91 % of control | [7] 91 % of control

C=C(Br)CNC(=O)C(C)(C)C
inactive: [4] 97 % of control | [5] 97 % of control | dose: 400.0 mg/kg/injection, schedule: Q04DX003 (ip), vehicle: saline with Tween-80 98 % of control

C/C(=C1/SC(=S)NC1=O)c1ccccc1
inactive: [2] 102 % of control

O=C(Nc1ccc([N+](=O)[O-])cc1)Nc1ccc([N+](=O)[O-])c(C(F)(F)F)c1
inactive: dose: 12.5 mg/kg/injection, schedule: Q01DX009 (ip), vehicle: saline 87 % of control | dose: 15.0 mg/kg/injection, schedule: Q01DX015 (ip), vehicle: saline 97 % of control | dose: 25.0 mg/kg/injection, schedule: Q01DX009 (ip), vehicle: saline 90 % of control | dose: 25.0 mg/kg/injection, schedule: Q04DX003 (ip), vehicle: acetone 86 % of control | dose: 30.0 mg/kg/injection, schedule: Q01DX015 (ip), vehicle: saline 94 % of control | dose: 50.0 mg/kg/injection, schedule: Q01DX009 (ip), vehicle: saline 90 % of control | dose: 50.0 mg/kg/injection, schedule: Q04DX003 (ip), vehicle: acetone 88 % of control | dose: 60.0 mg/kg/injection, schedule: Q01DX015 (ip), vehicle: saline 92 % of control | dose: 75.0 mg/kg/injection, schedule: Q01DX009 (ip), vehicle: saline with Tween-80 102 % of control | [2] 94 % of control | dose: 115.0 mg/kg/injection, schedule: Q01DX009 (ip), vehicle: saline with Tween-80 100 % of control | dose: 120.0 mg/kg/injection, schedule: Q01DX015 (ip), vehicle: saline 90 % of control

O=S(=O)(O)c1ccc(N=Nc2ccc(O)c(Cl)c2)cc1
inactive: dose: 55.0 mg/kg/injection, schedule: Q01DX Z (ip), vehicle: methylcellulose (MC) 94 % of control | dose: 83.0 mg/kg/injection, schedule: Q01DX Z (ip), vehicle: methylcellulose (MC) 96 % of control | dose: 125.0 mg/kg/injection, schedule: Q01DX Z (ip), vehicle: methylcellulose (MC) 106 % of control

CC12CCC3C4CCC(O)CC4=CCC3C1CCC2=O (configuration not stated)
inactive: dose: 50.0 mg/kg/injection, schedule: Q01DX001 (ip), vehicle: Klucel (hydroxypropylcellulose) (HPC) 107 % of control | [8] 104 % of control and 107 % of control | [9] 92 % of control | [10] 104 % of control

c1cc(-c2sc(-c3ccncc3)c(-c3ccncc3)c2-c2ccncc2)ccn1
inactive: [8] 107 % of control | [9] 98 % of control | [10] 98 % of control

Cn1nc(SCc2ccccc2)c(=O)n(C(c2ccccc2)c2ccccc2)c1=O
inactive: [6] 104 % of control | [7] 93 % of control

CC(C)CCS(=O)c1ccccc1 (configuration not stated)
inactive: dose: 75.0 mg/kg/injection, schedule: Q01DX001 (ip), vehicle: acetone 91 % of control | dose: 75.0 mg/kg/injection, schedule: Q04DX003 (ip), vehicle: acetone 100 % of control | dose: 150.0 mg/kg/injection, schedule: Q01DX001 (ip), vehicle: acetone 100 % of control | dose: 150.0 mg/kg/injection, schedule: Q04DX003 (ip), vehicle: acetone 97 % of control | dose: 300.0 mg/kg/injection, schedule: Q01DX001 (ip), vehicle: acetone 98 % of control | dose: 300.0 mg/kg/injection, schedule: Q04DX003 (ip), vehicle: acetone 89 % of control

O=[N+]([O-])c1ccc2nccc(Cl)c2c1
inactive: dose: 25.0 mg/kg/injection, schedule: Q01DX009 (ip), vehicle: Klucel (hydroxypropylcellulose) (HPC) 97 % of control | dose: 50.0 mg/kg/injection, schedule: Q01DX009 (ip), vehicle: Klucel (hydroxypropylcellulose) (HPC) 92 % of control | [11] 95 % of control

CC12C=CC3(CCC4C(C)(C)C(OC5OC(CO)C(O)C(O)C5O)C(=O)CC4(C)C3CC1=O)C2 (configuration not stated)
inactive: [2] 100 % of control | [3] 109 % of control | [12] 97 % of control

COc1cc([C@@H]2c3cc4c(cc3[C@H](OC(C)=O)[C@H]3COC(=O)[C@@H]23)OCO4)cc(OC)c1OC
inactive: dose: 33.0 mg/kg/injection, schedule: Q01DX009 (ip), vehicle: saline with Tween-80 97 % of control | [11] 98 % of control | dose: 200.0 mg/kg/injection, schedule: Q04DX003 (ip), vehicle: Klucel (hydroxypropylcellulose) (HPC) 90 % of control

CCCCCCCCCCNC(=S)NNC(=O)CCCC(=O)NNC(=S)NCCCCCCCCCC
inactive: [1] 96 % of control | [2] 96 % of control | [3] 90 % of control | [12] 96 % of control

C/C(=N\N=C(N)N)c1cccc(NC(=S)Nc2cccc(/C(C)=N/N=C(N)N)c2)c1
inactive: dose: 20.0 mg/kg/injection, schedule: Q01DX005 (ip), vehicle: saline with Tween-80 108 % of control
